# Data: US6906006B1, “N-arly-substituted nitrogen-containing heterocycles, processes and novel intermediates for their preparation, and their use as herbicides and plant growth regulators” (Bayer Aktiengesellschaft, priority 1988, dated 2005)
# Experiments:
# test plants [1] = assay: Post-emergence test (Use Example B, formula (I) compounds); assay type: in vivo; conditions: sprayed in 2,000 l of water/ha, damage rated after three weeks, comparison substance 1-(2-chloro-4-trifluoromethylphenyl)-5-methyl-4-nitropyrazole
# Protocol: • Solvents 5 parts by weight of acetone • Emulsifier: 1 part by weight of alkylaryl polyglycol ether
# (§1) To produce a suitable preparation of active compound, 1 part by weight of active compound is mixed with the stated amount of solvent, the stated amount of emulsifier is added and the concentrate is diluted with water to the desired concentration.
# Test plants which have a height of 5-15 cm are sprayed with the preparation of the active compound in such a way as to apply the particular amounts of active compound desired per unit area. The concentration of the spray liquor is so chosen that the particular amounts of active compound desired are applied in 2,000 l of water/ha. After three weeks, the degree of damage to the plants is rated in % damage in comparison to the development of the untreated control. The figures denote: • 0%=no action (like untreated control) • 100%=total destruction
# test plants [2] = assay: Pre-emergence test (Use Example A, formula (I) compounds); assay type: in vivo; conditions: damage rated after three weeks, comparison substance 1-(2-chloro-4-trifluoromethylphenyl)-5-methyl-4-nitropyrazole
# Protocol: • Solvent: 5 parts by weight of acetone • Emulsifier: 1 part by weight of alkylaryl polyglycol ether
# as §1
# Seeds of the test plants are sown in normal soil and, after 24 hours, watered with the preparation of active compound. It is expedient to keep constant the amount of water per unit area. The concentration of the active compound in the preparation is of no importance, only the amount of active compound applied per unit area being decisive. After three weeks, the degree of damage to the plants is rated in % damage in comparison to the development of the untreated control. The figures denote: • 0%=no action (like untreated control) • 100% total destruction
Compound,effectiveness and crop plant selectivity compared with the prior art (test plants [1]),effectiveness and crop plant selectivity compared with the prior art (test plants [2])
"Cc1c2c(nn1-c1cc(SC(C)C)c(C#N)cc1F)CCCC2 [Example 9, 4-(5-methyl-3,4-tetramethylene-1-pyrazolyl)-5-fluoro-2-isopropylthiobenzonitrile]",clearly superior effectiveness as well as crop plant selectivity,
CCOCCOc1cc(-n2nc3c(c2C)CCCC3)c(F)cc1C#N [Example 10],clearly superior effectiveness as well as crop plant selectivity,clearly superior to the prior art
